Where “and” joins values, the source holds several entries; their conditions need not be identical. Identical values can stand only once.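 A five-concentration, 48-hour dose response in 96-well plates underlies each endpoint, interpolated linearly between surrounding concentrations. GI50 is the concentration that inhibits growth by half.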 Calls of active or inactive are those of the source. Rule as the data show it: active = GI50 up to about 1.1 µM and inactive = higher. Non-standard residues stand in square brackets, D forms with d. Residues, ends and D or L forms follow the SMILES beside them. *: point of attachment. Bn2Val = CC(C)[C@@H](C(=O)*)N(Cc1ccccc1)Cc1ccccc1; NMeV = CN[C@H](C(=O)O)C(C)C; X32 = COc1ccc(CN*)c(OC)c1; dNMeA = CN[C@H](C)C(=O)O
Tests used:
Assay in all cases: NCI tumour cell line growth inhibition, 48 h
SK-MEL-5 = system: SK-MEL-5
SK-OV-3 = system: SK-OV-3
NCI-H226 = system: NCI-H226
SK-MEL-2 = system: SK-MEL-2
CCRF-CEM = system: CCRF-CEM
TK-10 = system: TK-10
MOLT-4 = system: MOLT-4
A549 = system: A549
SR = system: SR
SNB-19 = system: SNB-19
NCI-H23 = system: NCI-H23
OVCAR-4 = system: OVCAR-4
Malme-3M = system: Malme-3M
HCT-15 = system: HCT-15
SK-MEL-28 = system: SK-MEL-28
HCT-116 = system: HCT-116
NCI-H460 = system: NCI-H460
SF-268 = system: SF-268
BT-549 = system: BT-549
MDA-N = system: MDA-N

| Compound | GI50 (SK-MEL-5) | GI50 (SK-OV-3) | GI50 (NCI-H226) | GI50 (SK-MEL-2) | GI50 (CCRF-CEM) | GI50 (TK-10) | GI50 (MOLT-4) | GI50 (A549) | GI50 (SR) | GI50 (SNB-19) | GI50 (NCI-H23) | GI50 (OVCAR-4) | GI50 (Malme-3M) | GI50 (HCT-15) | GI50 (SK-MEL-28) | GI50 (HCT-116) | GI50 (NCI-H460) | GI50 (SF-268) | GI50 (BT-549) | GI50 (MDA-N) |
| --- | --- | --- | --- | --- | --- | --- | --- | --- | --- | --- | --- | --- | --- | --- | --- | --- | --- | --- | --- | --- |
| COc1ccc(C2=NN(C(=N)S)C(c3ccccc3)C2)cc1 (stereo unspecified) | 16.7 µM (inactive) | 46.6 µM (inactive) | 34.6 µM (inactive) | 29.4 µM (inactive) | 33.2 µM (inactive) | 37.8 µM (inactive) | 28 µM (inactive) | 34.8 µM (inactive) | 23.2 µM (inactive) | 51.8 µM (inactive) | 34 µM (inactive) | 30.3 µM (inactive) | 30.5 µM (inactive) | 33.6 µM | 91 µM (inactive) | 31.5 µM (inactive) | 30 µM (inactive) | 43.6 µM (inactive) | 38.2 µM (inactive) | 27.9 µM (inactive) |
| Cc1ccc(S(=O)(=O)Oc2coc(CO)cc2=O)cc1 | 13.5 µM (inactive) | 17.1 µM (inactive) | 33.1 µM (inactive) | 20.3 µM (inactive) | 3.08 µM (inactive) | 17.5 µM (inactive) | 13.4 µM (inactive) | 14.8 µM (inactive) | 3.82 µM (inactive) | 14.6 µM (inactive) | 16.8 µM (inactive) | 15.1 µM (inactive) | 16.2 µM (inactive) | 13.3 µM | 17.3 µM (inactive) | 4.25 µM (inactive) | 14.4 µM (inactive) | 9.42 µM (inactive) | 13.8 µM (inactive) | 8.02 µM (inactive) |
| COc1ccc2c(c1)CN([C@@H](C)[C@H]1CC[C@H]3[C@@H]4CC[C@H]5C[C@@H](O)CC[C@]5(C)[C@H]4CC[C@]13C)CO2 | 1.69 µM (inactive) | 1.7 µM (inactive) | 7.36 µM (inactive) | 1.96 µM (inactive) | 1.85 µM (inactive) | 2.79 µM (inactive) | 1.03 µM (active) | 1.76 µM (inactive) | 0.321 µM (active) | 1.96 µM (inactive) | 1.89 µM (inactive) | 4.05 µM (inactive) | 1.53 µM (inactive) | 1.32 µM | 2.48 µM (inactive) | 2.17 µM (inactive) | 1.23 µM (inactive) | 2.26 µM (inactive) | 3.38 µM (inactive) | 1.7 µM (inactive) |
| CCN(CC)CCC(=O)c1ccc(Oc2ccc(C)cc2)cc1 | – | 28.4 µM (inactive) | 35.2 µM (inactive) | 33.2 µM (inactive) | 26.3 µM (inactive) | 17.7 µM (inactive) | 21.6 µM (inactive) | > 100 µM (inactive) | 26.2 µM (inactive) | 18.5 µM (inactive) | 17.7 µM (inactive) | 24.4 µM (inactive) | 17.5 µM (inactive) | 18.7 µM | 16.9 µM (inactive) | 17.3 µM (inactive) | – | 18.8 µM (inactive) | 18 µM (inactive) | 17.7 µM (inactive) |
| CCOC(=O)/C(=C\c1ccc(CO)o1)P(=O)(OCC)OCC | > 100 µM (inactive) | 68.5 µM (inactive) | > 100 µM (inactive) | 25.2 µM (inactive) | – | 49.5 µM (inactive) | 56.8 µM (inactive) | > 100 µM (inactive) | 41.9 µM (inactive) | 63.2 µM (inactive) | 22.3 µM (inactive) | 19.9 µM (inactive) | 20.8 µM (inactive) | 18.4 µM | 30.7 µM (inactive) | 24.4 µM (inactive) | 17 µM (inactive) | 28.2 µM (inactive) | 20.1 µM (inactive) | 22.8 µM (inactive) |
| COc1ccc(-c2c(C#N)c(N)n(C3OCC(OC(C)=O)C(OC(C)=O)C3OC(C)=O)c(=S)c2C#N)cc1 (stereo unspecified) | 34.8 µM (inactive) | 42.8 µM (inactive) and 24 µM (inactive) | 82.8 µM (inactive) and 77.8 µM (inactive) | 22.3 µM (inactive) and 40.7 µM (inactive) | 16.4 µM (inactive) and 31 µM (inactive) | – | 17.6 µM (inactive) and 14.3 µM (inactive) | 99.5 µM (inactive) and 65.3 µM (inactive) | 14.3 µM (inactive) and 14 µM (inactive) | > 100 µM (inactive) | > 100 µM (inactive) | 47.3 µM (inactive) and 48.3 µM (inactive) | 44.9 µM (inactive) and 37.5 µM (inactive) | 73.1 µM and 62.5 µM | 61.4 µM (inactive) and 60.3 µM (inactive) | 41.1 µM (inactive) and 52.2 µM (inactive) | 44.1 µM (inactive) and 36.4 µM (inactive) | 31.4 µM (inactive) | 20.7 µM (inactive) and 16.4 µM (inactive) | 43 µM (inactive) and 51.2 µM (inactive) |
| Cc1ccnc2nc(-c3ccc(Cl)cc3)cc(O)c12 | 3.13 µM (inactive) | 3.86 µM (inactive) | 5.16 µM (inactive) | 72.4 µM (inactive) | 4.63 µM (inactive) | > 60.5 µM (inactive) | 3.99 µM (inactive) | 9.08 µM (inactive) | 1.41 µM (inactive) | 19.1 µM (inactive) | 6.31 µM (inactive) | > 23.8 µM (inactive) | 6.81 µM (inactive) | 2.32 µM | 7.78 µM (inactive) | 4.46 µM (inactive) | 3.85 µM (inactive) | 28.4 µM (inactive) | > 100 µM (inactive) | 0.752 µM (active) |
| COC(=O)C1C=CN(N(C)C)C2=C1C(=O)c1c(O)cccc1C2=O (stereo unspecified) | 0.54 µM (active) | 6.19 µM (inactive) | 1.87 µM (inactive) | 2.31 µM (inactive) | 2.22 µM (inactive) | 4.27 µM (inactive) | 2.56 µM (inactive) | 2.47 µM (inactive) | 0.152 µM (active) | 2.34 µM (inactive) | 1.63 µM (inactive) | 2.17 µM (inactive) | 1.53 µM (inactive) | 1.51 µM | 1.94 µM (inactive) | 1.92 µM (inactive) | 1.04 µM (active) | 3.83 µM (inactive) | 1.99 µM (inactive) | 0.422 µM (active) |
| CN(/N=C/c1ccccc1O)c1ccc2ccccc2n1 | 32.5 µM (inactive) | 16.3 µM (inactive) | 78 µM (inactive) | 35.6 µM (inactive) | 12.9 µM (inactive) | 22.2 µM (inactive) | 24 µM (inactive) | 16.3 µM (inactive) | 19.7 µM (inactive) | 16.7 µM (inactive) | 17.1 µM (inactive) | 20.3 µM (inactive) | 21.6 µM (inactive) | 12.5 µM | 65.9 µM (inactive) | 48.3 µM (inactive) | 22.9 µM (inactive) | 22.5 µM (inactive) | 23.6 µM (inactive) | 52.2 µM (inactive) |
| C=C1CC[C@]2(C)[C@H](CC[C@@]34C[C@@H](CC[C@H]32)[C@@H](C(=O)O)C4)C1(C)C | 8.24 µM (inactive) | > 12.5 µM (inactive) | > 12.5 µM (inactive) | > 12.5 µM (inactive) | 7.05 µM (inactive) | > 12.5 µM (inactive) | 6.17 µM (inactive) | 5.22 µM (inactive) | 6.37 µM (inactive) | > 12.5 µM (inactive) | > 12.5 µM (inactive) | > 12.5 µM (inactive) | > 12.5 µM (inactive) | > 12.5 µM | > 12.5 µM (inactive) | > 12.5 µM (inactive) | 5.19 µM (inactive) | – | > 12.5 µM (inactive) | > 12.5 µM (inactive) |
| CCc1nnc2sc(-c3ccc(-c4ccccc4[N+](=O)[O-])o3)nn12 | 27.7 µM (inactive) | 40 µM (inactive) | 14.4 µM (inactive) | 28.1 µM (inactive) | 26.9 µM (inactive) | 75.7 µM (inactive) | 19.5 µM (inactive) | 36.5 µM (inactive) | 20.1 µM (inactive) | 75.3 µM (inactive) | 32.9 µM (inactive) | 53.1 µM (inactive) | > 100 µM (inactive) | 30.1 µM | – | 37.3 µM (inactive) | 31 µM (inactive) | 49.1 µM (inactive) | 36.6 µM (inactive) | 19.9 µM (inactive) |
| COC(=O)c1cc(-c2ccc3ccccc3c2)nc(O)c1C#N | > 100 µM (inactive) | > 100 µM (inactive) | > 100 µM (inactive) | > 100 µM (inactive) | – | > 100 µM (inactive) | – | > 100 µM (inactive) | > 100 µM (inactive) | > 100 µM (inactive) | > 100 µM (inactive) | > 100 µM (inactive) | > 100 µM (inactive) | > 100 µM | > 100 µM (inactive) | > 100 µM (inactive) | > 100 µM (inactive) | > 100 µM (inactive) | > 100 µM (inactive) | > 100 µM (inactive) |
| COc1ccc(CNC(=O)[C@@H]2CCCN2C(=O)[C@@H](C)N(C)C(=O)[C@H](C(C)C)N(C)C(=O)[C@@H](NC(=O)[C@H](C(C)C)N(Cc2ccccc2)Cc2ccccc2)C(C)C)c(OC)c1 (Bn2Val-V[NMeV][dNMeA]P-X32) | – | 10.7 µM (inactive) | 5.41 µM (inactive) | 1.77 µM (inactive) | – | 4.47 µM (inactive) | – | 3.77 µM (inactive) | 2.15 µM (inactive) | 3.4 µM (inactive) | 2.94 µM (inactive) | 3.41 µM (inactive) | 5.12 µM (inactive) | 3.05 µM | 3.29 µM (inactive) | 3.13 µM (inactive) | 3.52 µM (inactive) | 3.71 µM (inactive) | 2.56 µM (inactive) | 2.35 µM (inactive) |
| CC(=O)c1c(O)cc(O)c(-c2c(C)cc(O)c3c2C(=O)c2cccc(O)c2C3=O)c1O | – | 13.1 µM (inactive) | 18.3 µM (inactive) | 15.9 µM (inactive) | – | 15.8 µM (inactive) | 10.8 µM (inactive) | 14.6 µM (inactive) | 16.3 µM (inactive) | 21 µM (inactive) | – | 10.8 µM (inactive) | 11.9 µM (inactive) | 14.1 µM | 20.7 µM (inactive) | 15.4 µM (inactive) | 15 µM (inactive) | 15.1 µM (inactive) | 17.5 µM (inactive) | 16 µM (inactive) |
